Assay results published in EPA's ToxRefDB 2.

Key:
dog [1] = details: Subchronic oral toxicity in nonrodent, beagle, Feed, dose end: 13 week, group: systemic
mouse [2] = details: Multigenerational reproductive toxicity study, other, Oral, Feed, dose end: 1 generation
rat [3] = details: Carcinogenicity; fischer; Oral; Water; dose end: 104 week; group: systemic; systemic / in life observation / water consumption / water consumption
dog [4] = details: Chronic toxicity; beagle; Oral; Capsule; dose end: 12 month; group: cholinesterase; cholinesterase / cholinesterase / cholinesterase / plasma cholinesterase (che)
rat [5] = details: Multigenerational reproductive toxicity study, sprague dawley, Oral, Feed, dose end: 2 generation
rat [6] = details: Prenatal developmental toxicity study, sprague dawley, Oral, Gavage/Intubation, dose end: 15 GD
rat [7] = details: Subchronic oral toxicity in rodents, sprague dawley, Feed, dose end: 90 day, group: systemic
mouse [8] = details: Carcinogenicity, cd1, Oral, Feed, dose end: 18 month, group: systemic
dog [9] = details: Chronic toxicity, beagle, Oral, Feed, dose end: 52 week, group: systemic
mouse [10] = details: Carcinogenicity, cd1, Oral, Feed, dose end: 18 month, group: systemic; remark: listed apart in the source
dog [11] = details: Subchronic oral toxicity in nonrodent, beagle, Feed, dose end: 13 week, group: systemic; remark: listed apart in the source
mouse [12] = details: Subchronic oral toxicity in rodents, cd1, Feed, dose end: 13 week, group: systemic
rat [13] = details: Combined chronic toxicity/carcinogenicity, sprague dawley, Oral, Feed, dose end: 24 month, group: systemic
mouse [14] = details: Prenatal developmental toxicity study, cd1, Oral, Gavage/Intubation, dose end: 14 GD
rat [15] = details: Subchronic oral toxicity in rodents, wistar, Feed, dose end: 90 day, group: systemic, systemic / in life observation / body weight / body weight + systemic / in life observation / food consumption / food consumption + systemic…
mouse [16] = details: Subchronic oral toxicity in rodents, cd1, Feed, dose end: 90 day, group: systemic
rat [17] = details: Subchronic oral toxicity in rodents, other, Feed, dose end: 90 day, group: systemic
[18] = systemic / in life observation / body weight / body weight + systemic / in life observation / food consumption / food consumption + systemic…
[19] = group: offspring, systemic / in life observation / body weight / litter weight + systemic / in life observation / body weight / offspring (pup) weight + …
[20] = group: reproductive, reproductive / reproductive performance / mating / mating + reproductive / reproductive performance / estrous cycle / length + reproductive…
[21] = group: offspring, systemic / in life observation / body weight / offspring (pup) weight + systemic / in life observation / body weight / offspring (pup) …
[22] = group: parental, systemic / in life observation / clinical signs / anogenital staining
[23] = group: parental, systemic / in life observation / clinical signs / anogenital staining + systemic / in life observation / body weight / body weight + …
[24] = group: developmental, developmental / developmental malformation / kidney / dilated renal pelvis + developmental / developmental malformation / ureter / dilated
[25] = group: maternal, systemic / in life observation / body weight / body weight gain + systemic / in life observation / food consumption / food consumption
[26] = systemic / in life observation / body weight / body weight gain
[27] = systemic / in life observation / body weight / body weight gain + systemic / clinical chemistry / alkaline phosphatase (alp/alk) / alkaline …
[28] = systemic / in life observation / clinical signs / defecation (diarrhea)
[29] = systemic / in life observation / clinical signs / defecation (diarrhea) + systemic / clinical chemistry / alpha-1 globulin / alpha-1 …
[30] = systemic / clinical chemistry / 5' nucleotidase / 5' nucleotidase + systemic / clinical chemistry / alkaline phosphatase (alp/alk) / …
[31] = systemic / in life observation / body weight / body weight + systemic / in life observation / body weight / body weight gain + systemic / …
[32] = group: developmental, systemic / in life observation / body weight / offspring (pup) weight
[33] = group: maternal, systemic / in life observation / mortality / mortality
[34] = systemic / in life observation / body weight / body weight gain + systemic / organ weight / heart / relative to body weight + systemic / …
[35] = systemic / in life observation / food consumption / food consumption
[36] = systemic / in life observation / food consumption / food consumption + systemic / in life observation / body weight / body weight + systemic…

## Cn1sccc1=O [2-Methyl-3(2H)-isothiazolone]
Dog [1]; systemic / in life observation / body weight / body weight + systemic / in life observation / food consumption / food consumption
  LOAEL: 40.6 mg/kg/day
Dog [1]; [18]
  LEL: 40.6 mg/kg/day
  NEL: 9.9 mg/kg/day
  NOAEL: 9.9 mg/kg/day

## O=C(OC[C@H]1O[C@@H](OC(=O)c2cc(O)c(O)c(OC(=O)c3cc(O)c(O)c(O)c3)c2)[C@H](OC(=O)c2cc(O)c(O)c(OC(=O)c3cc(O)c(O)c(O)c3)c2)[C@@H](OC(=O)c2cc(O)c(O)c(OC(=O)c3cc(O)c(O)c(O)c3)c2)[C@@H]1OC(=O)c1cc(O)c(O)c(OC(=O)c2cc(O)c(O)c(O)c2)c1)c1cc(O)c(O)c(OC(=O)c2cc(O)c(O)c(O)c2)c1 [Tannic acid]
Mouse [2]; [19]
  LEL: 12000 mg/kg/day
  LOAEL: > 12000 mg/kg/day
  NEL: < 12000 mg/kg/day
  NOAEL: ≥ 12000 mg/kg/day
Mouse [2]; [20]
  LEL: 12000 mg/kg/day
  LOAEL: > 12000 mg/kg/day
  NEL: < 12000 mg/kg/day
  NOAEL: ≥ 12000 mg/kg/day
Rat [3]
  LEL: 131 mg/kg/day
  LOAEL: > 243 mg/kg/day
  NEL: < 131 mg/kg/day
  NOAEL: ≥ 243 mg/kg/day

## CCOP(=S)(OCC)SCSC(C)(C)C [Terbufos]
Dog [4]
  LEL: 0.015 mg/kg/day
  LOAEL: 0.015 mg/kg/day
  NEL: < 0.015 mg/kg/day
  NOAEL: < 0.015 mg/kg/day

## N#Cc1c[nH]cc1-c1cccc2c1OC(F)(F)O2 [Fludioxonil]
Rat [5]; group: offspring, systemic / in life observation / body weight / offspring (pup) weight
  LOAEL: 222 mg/kg/day
Rat [5]; [21]
  LEL: 222 mg/kg/day
  NEL: 22.1 mg/kg/day
  NOAEL: 22.1 mg/kg/day
Rat [5]; [22]
  NEL: 22.1 mg/kg/day
  NOAEL: 22.1 mg/kg/day
Rat [5]; [23]
  LEL: 222 mg/kg/day
  LOAEL: 222 mg/kg/day
Rat [6]; [24]
  LOAEL: 1000 mg/kg/day
  NEL: 10 mg/kg/day
  NOAEL: 100 mg/kg/day
Rat [6]; group: developmental, developmental / developmental malformation / ureter / dilated
  LEL: 100 mg/kg/day
Rat [6]; group: maternal, systemic / in life observation / body weight / body weight gain
  LOAEL: 1000 mg/kg/day
Rat [6]; [25]
  LEL: 1000 mg/kg/day
  NEL: 100 mg/kg/day
  NOAEL: 100 mg/kg/day
Rat [7]; systemic / in life observation / body weight / body weight gain + systemic / pathology microscopic / kidney / nephropathy
  LOAEL: 428 mg/kg/day
Rat [7]; systemic / in life observation / body weight / body weight gain + systemic / pathology microscopic / kidney / nephropathy + systemic / …
  NOAEL: 64 mg/kg/day
Rat [7]; systemic / organ weight / thymus / relative to body weight
  LEL: 70 mg/kg/day
Rat [7]; systemic / organ weight / thymus / relative to body weight + systemic / clinical chemistry / alkaline phosphatase (alp/alk) / alkaline …
  NEL: 7.1 mg/kg/day
Mouse [8]; systemic / organ weight / heart / absolute + systemic / organ weight / kidney / absolute + systemic / organ weight / liver / relative to …
  NEL: 3.3 mg/kg/day
Mouse [8]; systemic / pathology microscopic / kidney / nephropathy
  LOAEL: 590 mg/kg/day
Mouse [8]; systemic / pathology microscopic / kidney / nephropathy + systemic / hematology / hematocrit (hct) / hematocrit (hct) + systemic / …
  NOAEL: 3.3 mg/kg/day
Mouse [8]; systemic / pathology microscopic / kidney / nephropathy + systemic / hematology / hemoglobin (hgb) / hemoglobin (hgb) + systemic / …
  LEL: 590 mg/kg/day
Dog [9]; [26]
  LEL: 35.5 mg/kg/day
  LOAEL: 35.5 mg/kg/day
Dog [9]; [27]
  NEL: 3.3 mg/kg/day
  NOAEL: 3.3 mg/kg/day
Mouse [10]; [26]
  LEL: 1.1 mg/kg/day
  NEL: < 1.1 mg/kg/day
Mouse [10]; systemic / in life observation / body weight / body weight gain + systemic / in life observation / clinical signs / convulsions + systemic…
  NOAEL: 11.3 mg/kg/day
Mouse [10]; systemic / in life observation / clinical signs / convulsions + systemic / in life observation / clinical signs / urine, discoloration + …
  LOAEL: 112 mg/kg/day
Dog [11]; [28]
  LEL: 50 mg/kg/day
  LOAEL: 50 mg/kg/day
Dog [11]; [29]
  NEL: 5 mg/kg/day
  NOAEL: 5 mg/kg/day
Mouse [12]; [30]
  LOAEL: 1050 mg/kg/day
  NOAEL: 445 mg/kg/day
Mouse [12]; systemic / organ weight / liver / relative to body weight + systemic / pathology microscopic / liver / hypertrophy
  LEL: 559 mg/kg/day
Mouse [12]; systemic / organ weight / liver / relative to body weight + systemic / pathology microscopic / liver / hypertrophy + systemic / clinical …
  NEL: 178 mg/kg/day
Rat [13]; [31]
  LOAEL: 113 mg/kg/day
  NEL: 3.7 mg/kg/day
  NOAEL: 37 mg/kg/day
Rat [13]; systemic / in life observation / clinical signs / body surface staining + systemic / in life observation / clinical signs / feces, …
  LEL: 37 mg/kg/day

## CCOCCOCCO [2-(2-Ethoxyethoxy)ethanol]
Mouse [14]; [32]
  LEL: 5500 mg/kg/day
  LOAEL: > 5500 mg/kg/day
  NEL: < 5500 mg/kg/day
  NOAEL: ≥ 5500 mg/kg/day
Mouse [14]; [33]
  LEL: 5500 mg/kg/day
  LOAEL: > 5500 mg/kg/day
  NEL: < 5500 mg/kg/day
  NOAEL: ≥ 5500 mg/kg/day
Rat [15]
  LEL: 2500 mg/kg/day
  LOAEL: > 2500 mg/kg/day
  NEL: 500 mg/kg/day
  NOAEL: ≥ 2500 mg/kg/day
Mouse [16]; [34]
  LOAEL: > 8100 mg/kg/day
  NEL: 900 mg/kg/day
  NOAEL: ≥ 8100 mg/kg/day
Mouse [16]; systemic / in life observation / body weight / body weight gain + systemic / organ weight / kidney / relative to body weight
  LEL: 2700 mg/kg/day
Rat [17]; [35]
  LEL: 250 mg/kg/day
  NEL: < 250 mg/kg/day
Rat [17]; [36]
  LOAEL: > 2500 mg/kg/day
  NOAEL: ≥ 2500 mg/kg/day
